Test results as given in the NIST ThermoML archive (doi:10.1016/j.fluid.2013.10.029).

Experiment: excess molar enthalpy (molar enthalpy of mixing); xn = mol fraction of the nth substance listed
Settings: 298.15 K, 101 kPa, Liquid, isothermal titration calorimeter

c1cc[nH]c1 [pyrrole] + c1ccccc1
Settings	excess molar enthalpy [kJ/mol]
x1 = 0.015	0.0713
x1 = 0.03	0.123
x1 = 0.0448	0.17
x1 = 0.0597	0.213
x1 = 0.0747	0.253
x1 = 0.0896	0.289
x1 = 0.1045	0.323
x1 = 0.1193	0.354
x1 = 0.1343	0.384
x1 = 0.1493	0.411
x1 = 0.1642	0.435
x1 = 0.1792	0.458
x1 = 0.1942	0.479
x1 = 0.2092	0.499
x1 = 0.2242	0.517
x1 = 0.2392	0.533
x1 = 0.2542	0.547
x1 = 0.2691	0.56
x1 = 0.284	0.571
x1 = 0.299	0.581
x1 = 0.314	0.589
x1 = 0.329	0.597
x1 = 0.344	0.603
x1 = 0.359	0.608
x1 = 0.374	0.613
x1 = 0.389	0.616
x1 = 0.404	0.618
x1 = 0.419	0.619
x1 = 0.434	0.619
x1 = 0.449	0.618
x1 = 0.464	0.616
x1 = 0.479	0.613
x1 = 0.494	0.609
x1 = 0.5091	0.604
x1 = 0.5241	0.599
x1 = 0.5391	0.592
x1 = 0.5541	0.585
x1 = 0.5613	0.584
x1 = 0.5683	0.581
x1 = 0.5692	0.577
x1 = 0.583	0.574
x1 = 0.5842	0.567
x1 = 0.5977	0.567
x1 = 0.5993	0.557
x1 = 0.6122	0.558
x1 = 0.6143	0.547
x1 = 0.6267	0.549
x1 = 0.6411	0.539
x1 = 0.6554	0.528
x1 = 0.6696	0.517
x1 = 0.6838	0.505
x1 = 0.6978	0.492
x1 = 0.7118	0.479
x1 = 0.7257	0.464
x1 = 0.7395	0.449
x1 = 0.7533	0.433
x1 = 0.7669	0.417
x1 = 0.7805	0.4
x1 = 0.794	0.382
x1 = 0.8074	0.363
x1 = 0.8208	0.344
x1 = 0.8341	0.324
x1 = 0.8473	0.304
x1 = 0.8604	0.282
x1 = 0.8735	0.26
x1 = 0.8865	0.237
x1 = 0.8993	0.214
x1 = 0.9121	0.189
x1 = 0.9249	0.164
x1 = 0.9377	0.138
x1 = 0.9502	0.113
x1 = 0.9628	0.0851
x1 = 0.9753	0.0578
x1 = 0.9877	0.0292
